Laboratory results reported in patent US20230119806A1, “ANTIGEN SPECIFIC EPITOPE BASED ANTI-INFECTIVE VACCINES” (VAXIL BIOTHERAPEUTICS LTD., priority 2020, published 2023).

Columns and labels:
[1] = tested on: splenocytes of immunized C57BL/6 mice; test: ELISpot of interleukin 2 after SP stimulation of splenocytes; assay type: cell-based; settings: SP stimulation of splenocytes of immunized C57BL/6 mice
Experimental: (§1) BALB/c and C57BL/6 mice were immunized by subcutaneous (SC) injections with 100 μg of individual SPs or a SP mixture and with intraperitoneal injections of 100 ng of mouse granulocyte macrophage colony stimulating factor (mGM-CSF) three times at 7-day intervals.

[2] = tested on: Peripheral blood mononuclear cells (PBMCs) from healthy donors; test: Ex vivo immunogenicity: proliferation of PBMCs stimulated by SP-loaded autologous dendritic cells; assay type: cell-based; settings: healthy donor PBMCs; for proliferation in CD4+ and CD8+ T cells / proliferation versus positive control SPs: SP-loaded autologous DCs
Experimental: Immunogenicity is assessed by quantifying proliferation of T cells in response to exposure to peptides. To this end, healthy donor peripheral blood mononuclear cells (PBMCs) are marked by a fluorescent dye and exposed to either the naked peptide or to autologous antigen presenting cells (APCs) pre-loaded with the SP. Phytohaemagglutinin (PHA), or tetanus toxoid, (TT), or previously tested SPs, serve as a positive control for maximum stimulation. Unloaded APCs, or medium, or human Fab fragments serve as negative controls. Proliferation is calculated by the increase of CD3+ T cells and the fraction of cells with different number of cell divisions assessed by flow cytometry.
Peripheral blood mononuclear cells (PBMCs) from healthy donors were stimulated by SP-loaded autologous dendritic cells (DCs).

[3] = tested on: splenocytes of immunized BALB/c mice; test: ELISpot of interferon gamma after SP stimulation of splenocytes; assay type: cell-based
Experimental: as §1

BALB/c and C57BL/6 mice = test: ELISA of sera of mice immunized with signal peptides (antibody response); assay type: in vivo; settings: for antibody response against VXL-301 (ELISA): VXL-301 coated plate; for antibody responses of immunized mice (ELISA, overall): summary of BALB/c and C57BL/6 ELISA results; for antibody response against VXL-303 (ELISA): VXL-303 coated plate
Experimental: as §1
To monitor if antibody response was developed against the SPs an enzyme-linked immunosorbent assay (ELISA) was performed with sera obtained on days 10 and 20 post the last immunization when VXL-301, or VXL-302, or VXL-303 or VXL-201c (negative control) were coated on the ELISA plate.

[4] = BALB/c mice, sera day 10 post last immunization, 100 μg SC + mGM-CSF, three times
[5] = C57BL/6 mice, sera day 20 post last immunization

Row | Sequence | secretion of interleukin 2 (ELISpot) [1] | proliferation versus unloaded DCs (non-specific proliferation) [2] | proliferation in CD4+ and CD8+ T cells [2] | proliferation versus positive control SPs [2] | secretion of interferon gamma (ELISpot) [3] | antibody response against VXL-301 (ELISA) (BALB/c and C57BL/6 mice; [4]) | antibody response against VXL-301 (ELISA) (BALB/c and C57BL/6 mice; [5]) | antibody responses of immunized mice (ELISA, overall) (BALB/c and C57BL/6 mice) | antibody response against VXL-303 (ELISA) (BALB/c and C57BL/6 mice; [4]) | antibody response against VXL-303 (ELISA) (BALB/c and C57BL/6 mice; [5])
1 | MKIILFLALITLATC [VXL-302, signal peptide of SARS-CoV-2 ORF7a] | induced secretion of interleukin 2 primarily in the VXL-302-immunized group | proliferation that was greater than unloaded DCs | evident in both CD4+ cytotoxic T cells and CD8+ helper T cells | comparable to the levels observed for positive control SPs | induced secretion of interferon gamma primarily in the VXL-302 immunized group |  |  |  |  | 
2 | MFVFLVLLPLVSSQC [VXL-301] | induced secretion of interleukin 2 primarily in the VXL-301- and the SP mixture-immunized groups | proliferation that was greater than unloaded DCs | evident in both CD4+ cytotoxic T cells and CD8+ helper T cells | comparable to the levels observed for positive control SPs | induced secretion of interferon gamma primarily in the VXL-301- and the SP mixture-immunized groups | greatest antibody response | highest antibody responses | demonstrated antibody responses |  | 
3 | MKFLVFLGIITTVAA [VXL-303] | induced secretion of interleukin 2 primarily in the VXL-303- and the SP mixture-immunized groups | proliferation that was greater than unloaded DCs | evident in both CD4+ cytotoxic T cells and CD8+ helper T cells | comparable to the levels observed for positive control SPs | induced secretion of interferon gamma primarily in the VXL-303- and the SP mixture-immunized groups |  |  | demonstrated antibody responses | greatest antibody response | highest antibody responses
